From patent US10306895B2, “Plant defense signaling peptides and applications thereof” (Academia Sinica, priority 2014, dated 2019)
Ends that are not written are not given here.

Legend:
[1] = tested on: PR-1b and WRKY53 gene expression; assay: qRT-PCR of defense genes in tomato leaves pretreated with cleavage motif peptide and challenged with Pst DC3000 hrcC-; format: in vivo; settings: 1 μM CNYDPV pretreatment for 2 h, then Pst DC3000 hrcC- challenge for 2 h
Method: Relative expression levels of PR-1b and WRKY53 were analyzed by qRT-PCR 2 h after challenge of 10^7 cfu/mL Pst DC3000 hrcC^− or buffer in tomato leaves, which was pretreated with water, 100 nM CAPE1 or 1 μM CNYDPV for 2 h, respectively.
Quantitative real-time PCR (qRT-PCR) was used to validate the expression of some specific genes. Three biological replicates were used for qRT-PCR analyses. The qRT-PCR was performed using SYBR Green reagent and ABI 7500 Real Time PCR systems (Foster City, Calif.). The PCR cycling steps were 50° C. for 2 min and 94° C. for 10 min for initial steps and followed by 95° C. for 15 s and 60° C. for 1 min for 40 cycles. The gene expressions across different samples were normalized with internal control EF-1α or Ubi3. The melting curve was used to verify the specificity of the PCR product.

[2] = tested on: Pseudomonas syringae pv. tomato DC3000 (Pst DC3000); format: in vivo
Method: (a) Changes of the larval sizes after feeding with water or 250 nM CAPE1 treated tomato leaves. The larval weights of thirty larvae were recorded each day. (b) The Pst DC3000 infection phenotypes of the plants presprayed with water or 100 nM CAPE1 peptide for 2 hours (n=3) prior to pathogen inoculation. […] All statistically significant differences between the CAPE1- and water-treated samples are indicated with * (P<0.05) or *** (P<0.001) based on Student's t-test.
(§1) (a) The level of SA induced by CAPE1 and flg22. The excised plants were pretreated with 10 mM phosphate buffer (buffer) or 365 nM CAPE1 or 365 nM flg22 in buffer through the cut stem for 8 hours (n=3). The quantity of SA was quantified by LC-SRM-MS and calculated based on the abundance of spiked SA isotopic standard (d6-SA). (b) The relative expression of WRKY53 and PR-1b were quantified by comparing the expression levels in untreated detached leaves with the detached leaves treated with water, 250 nM CAPE1 or 250 nM flg22 for 2 hours (n=4). The internal control Ubi3 was used for normalization. (c) The Pst DC3000 infection phenotypes for plants presprayed with water, 100 nM CAPE1 or 100 nM flg22 peptide for 2 hours (n=3) prior to the pathogen inoculation. The infection symptoms were observed 4 days after inoculation. […]

Pst DC3000 [3] = assay: Pathogen challenge of presprayed Arabidopsis plants; format: in vivo, Pseudomonas syringae pv. tomato; settings: plants sprayed with 100 nM peptide for 2 hours prior to inoculation
Method: The infection symptoms were observed 4 days after inoculation. The bacterial numbers were calculated 4 days after inoculation and are represented as log colony-forming units (Log CFU) per g leaf tissue. Data represent the means and SD of three biological samples.
To test the anti-pathogen activity induced by peptides in Arabidopsis, the plants were sprayed with 100 nM AtCAPE1, AtCAPE9, 100 nM flg22 or water, respectively, for 2 hours prior to pathogen challenge.
The bacterial pathogen Pseudomonas syringae pv. tomato DC3000 (Pst DC3000) or Pst DC3000 hrcC^− were grown on King's B (KB) agar medium containing 100 mg/L rifampicin for 2 days at 28° C. Before the challenge, the bacteria were cultured in KB liquid medium at 28° C. with 230 rpm shaking overnight. The bacteria were pelleted by centrifugation and resuspended in 10 mM MgSO4 at A600=0.25 (about 10^8 cfu/ml).

[4] = tested on: JA and JA-Ile accumulation; assay: Jasmonate hormone quantitation by LC-MS/MS in excised tomato plants; format: in vivo, Solanum lycopersicum (tomato); settings: 365 nM peptide in buffer through the cut stem of excised plants, 2 and 4 hours
Method: The plants treated with 10 mM phosphate buffer (buffer), 365 nM systemin (Sys) or 365 nM CAPE1 in buffer through the cut stem for 2 and 4 hours (n=3). The quantity of JA and JA-Ile were quantified by LC-SRM-MS and calculated by the abundance of spiked standard H2JA. Data represent the means and SD of three independent biological replicates.
To compare the jasmonates induced by the peptides, the excised tomato plants were treated with 10 mM phosphate buffer, 365 nM systemin or 365 nM CAPE1 in buffer through the cut stem for 2 and 4 hours (Schaller et al., 1995; Howe et al., 1996).
After peptide treatment, the metabolites were extracted from leaf tissues for phytohormone quantitation. The extraction procedure was modified from a previously published protocol (Pan et al., 2010). The leaf tissues (about 0.6 g fresh weight) were ground into powder under liquid nitrogen and transferred to a 50 ml screw-cap tube. The frozen leaf powder was dissolved in 6 ml extraction solvent and d6-SA (3 ng to 0.6 g leaf tissue) and H2JA (15 ng to 0.6 g leaf tissue) were added as internal standards. The samples were extracted by shaking at a speed of 100 rpm at 4° C. for 30 minutes and then 12 ml dichloromethane was added to each sample and shaken at 100 rpm at 4° C. for 30 minutes. The samples were centrifuged at 13,000×g at 4° C. for 5 minutes, and two phases were formed. […]

SA accumulation = assay: Salicylic acid quantitation by LC-MS/MS in excised tomato plants; format: in vivo, Solanum lycopersicum (tomato); settings: 365 nM peptide supplied to excised plants through cut stem, 8 hours
Method: as §1, with “normalization.” for “normalization. (c) The Pst DC3000 infection phenotypes for plants presprayed with water, 100 nM CAPE1 or 100 nM flg22 peptide for 2 hours (n=3) prior to the pathogen inoculation. The infection symptoms were observed 4 days after inoculation.”
After peptide treatment, the metabolites were extracted from leaf tissues for phytohormone quantitation. […] The dried samples were dissolved in 300 μl methanol, mixed well and centrifuged at 10,000×g at 4° C. for 5 minutes and then the supernatant was transferred to the sample vial for targeted quantitation analysis using LC-MS/MS.
For phytohormone quantitation, a linear ion trap-orbitrap mass spectrometer (Orbitrap Elite, Thermo Fisher Scientific, Bremen, Germany) coupled online with a UHPLC system (ACQUITY UPLC, Waters, Millford, Mass.) was used. […] The fragmentation reactions of m/z 137.02 to 93.03 for SA, 209.12 to 59.01 for JA, 322.20 to 130.09 for JA-Ile, 141.05 to 97.06 for d6-SA and 211.13 to 59.01 for H2JA were selected for quantitation. […]

[5] = tested on: WRKY53, PR-1b, Adi3 and ERF5 gene expression; settings: 30 minute or 6 hours treatment of flg22 on tomato; cited from earlier work
[6] = tested on: WRKY53 and PR-1b gene expression; assay: qRT-PCR of WRKY53 and PR-1b in detached tomato leaves; format: in vivo, Solanum lycopersicum (tomato); settings: 250 nM peptide, 2 hours
Method: (a) The level of SA induced by CAPE1 and flg22. The excised plants were pretreated with 10 mM phosphate buffer (buffer) or 365 nM CAPE1 or 365 nM flg22 in buffer through the cut stem for 8 hours (n=3). The quantity of SA was quantified by LC-SRM-MS and calculated based on the abundance of spiked SA isotopic standard (d6-SA). (b) The relative expression of WRKY53 and PR-1b were quantified by comparing the expression levels in untreated detached leaves with the detached leaves treated with water, 250 nM CAPE1 or 250 nM flg22 for 2 hours (n=4). The internal control Ubi3 was used for normalization. (c) The Pst DC3000 infection phenotypes for plants presprayed with water, 100 nM CAPE1 or 100 nM flg22 peptide for 2 hours (n=3) prior to the pathogen inoculation. The infection symptoms were observed 4 days after inoculation. […] A statistically significant difference compared with the correspondingly treated water (or buffer) samples is indicated with ** (P<0.01) or *** (P<0.001) based on Student's t-test.
Quantitative real-time PCR (qRT-PCR) was used to validate the expression of some specific genes. Three biological replicates were used for qRT-PCR analyses. The qRT-PCR was performed using SYBR Green reagent and ABI 7500 Real Time PCR systems (Foster City, Calif.). […]

Pst DC3000 [7] = settings: seedlings treated with 50 mM NaCl for 24 hours, with or without 250 nM AtCAPE1 for 6 hours
Method: 5 days Arabidopsis seedlings treated with 50 mM NaCl for 24 hours and following the treatment of with or without 250 nM AtCAPE1 for 6 hours. The infection symptoms were observed 4 days after Pst DC3000 inoculation. The bacterial numbers were calculated 7 days after inoculation and represented as log colony-forming units (Log CFU) per g leaf tissue. Data represent the means and SD of three biological samples.
Pst DC3000 or hrcC^− were grown in water- or peptide-treated plants for several days to observe the symptoms and then the bacteria were collected from the leaves and evaluated by bacterial titers according to a method outlined previously (Zimmerli et al., 2000).

CNYDPV
defense gene expression (PR-1b and WRKY53) in tomato [1]: decreased

PVGNWIGQRPY [CAPE1, PVGNWIGQRPY]
induction of the hypersensitive response (HR) ([2]; in vivo): without induction of the HR

PAGNYIGARPY (listed as Arabidopsis thaliana) [AtCAPE1]
immunity against Pst DC3000 infection in Arabidopsis (Pst DC3000 [3]): increase immunity against Pst DC3000 infection

AVQSKPPSKRDPPKMQTD [systemin]
induction of JA and JA-Ile [4]: significantly induced by treatment for 2 hours

PRGNYVNEKPY (listed as Arabidopsis thaliana) [AtCAPE9]
immunity against Pst DC3000 infection in Arabidopsis (Pst DC3000 [3]): increase immunity against Pst DC3000 infection

QRLSTGSRINSAKDDAAGLQIA [flg22]
induction of SA (SA accumulation): significantly induced SA | PR-1b, Adi3 and ERF5 induction (public RNA-seq data) [5]: could not be significantly induced | WRKY53 induction (public RNA-seq data) [5]: could be induced | plant resistance to Pst DC3000 infection in tomato ([2]; plants sprayed with 100 nM peptide for 2 hours prior to inoculation): resulted in plant resistance to Pst DC3000 infection | WRKY53 expression [6]: highly induced

[Cl-].[Na+] [salt, NaCl]
anti-pathogen activity in Arabidopsis after salt treatment (Pst DC3000 [7]): enhance the anti-pathogen activity
